Source: article PMC5648786, “Characterization of a dual function macrocyclase enables design and use of efficient macrocyclization substrates” (Nature Communications, 2017)
Numbering of substitutions follows the chain as printed. No end group written: not given here.

How the values were obtained:
[1] = molecular target: T1, GmPOPB-S577A (inactive mutant) (Galerina marginata, UniProt H2E7Q8, S577A); test: Isothermal titration calorimetry, peptide binding to inactive mutant GmPOPB_S577A; settings: ITC, 20 °C
T1 construct: His-tag (TEV-cleavable) (cleaved yes); made in house; host or cells: E. coli BL21(DE3)
T1 sequence (H2E7Q8 1-730 S577A): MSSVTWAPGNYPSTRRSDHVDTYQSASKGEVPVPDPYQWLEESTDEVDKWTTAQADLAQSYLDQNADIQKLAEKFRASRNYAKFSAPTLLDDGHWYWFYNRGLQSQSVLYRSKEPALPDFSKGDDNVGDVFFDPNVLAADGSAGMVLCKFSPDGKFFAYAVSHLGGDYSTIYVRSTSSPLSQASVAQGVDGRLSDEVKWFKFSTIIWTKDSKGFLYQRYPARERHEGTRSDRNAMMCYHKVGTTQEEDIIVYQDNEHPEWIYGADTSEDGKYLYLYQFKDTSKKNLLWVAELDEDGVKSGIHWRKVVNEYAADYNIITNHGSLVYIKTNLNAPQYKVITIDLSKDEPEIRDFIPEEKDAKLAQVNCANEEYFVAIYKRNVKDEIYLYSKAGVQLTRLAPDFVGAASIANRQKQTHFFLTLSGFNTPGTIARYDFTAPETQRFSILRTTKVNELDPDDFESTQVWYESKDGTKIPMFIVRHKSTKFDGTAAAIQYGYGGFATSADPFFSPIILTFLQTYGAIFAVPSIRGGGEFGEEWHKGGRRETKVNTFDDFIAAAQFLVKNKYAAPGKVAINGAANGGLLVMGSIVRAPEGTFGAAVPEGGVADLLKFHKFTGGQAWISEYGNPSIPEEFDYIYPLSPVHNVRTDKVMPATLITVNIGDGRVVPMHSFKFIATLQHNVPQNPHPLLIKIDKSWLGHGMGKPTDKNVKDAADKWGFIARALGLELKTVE

GmPOPB [2] = molecular target: T2, GmPOPB (Galerina marginata, UniProt H2E7Q8); settings: macrocyclization; 50 mM Tris pH 8.0, 50 mM NaCl, 10 mM DTT, room temperature; GmPOPB 1 μM for 13mer and 14mer, 50 nM for C6S, 20 nM others; duplicates, fit ± SEM
Protocol: Comparison between distinct substrates was performed in 50 mM Tris pH 8.0, 50 mM NaCl, 10 mM DTT with varying concentrations of substrates at room temperature. All reactions were performed in duplicates. Reactions were started by adding GmPOPB (50 nM for GmAMA1_C6S, 1 μM for the 13mer and 14mer, and 20 nM for other substrates) to the assay mixture containing buffer and peptide. Reactions were quenched at several time points by adding 50 μL reaction mixture to 20 μL 6% TFA. Reactants were separated from products for quantification by injecting 50 μL of each quenched time point mix onto a ZORBAX SB-C18, 5 µm, 9.4 × 50 mm (Agilent) column connected to an Agilent LC-MS (G6130B Single Quad, Agilent Technologies). Reactants were separated from products using a gradient from H2O containing 0.1% TFA or 0.1% formic acid and 5% acetonitrile to 50% acetonitrile, at 1.5 ml/min for 8 min. […] The sum of product+substrate was assumed equal to the total initial amount of substrate, product converted from % to concentration. This value was divided by concentration of enzyme present to yield v/E t (min^−1). […] For progress curves with the 35mer substrate, measurements were triplicate and quantification relied on ion counts from mass spectrometry. […] Authentic cyclic peptide was quantified by UV absorbance. […] Kinetic data were fitted to a Michaelis–Menten equation using GraphPad Prism, and values reported are average and standard error of the mean.

GmPOPB [3] = molecular target: T2, GmPOPB; test: Peptide products formed after 1 h and 16 h reaction of truncated substrates with GmPOPB; format: biochemical; design: His-tag (TEV-cleavable) (cleaved yes); made in house; host or cells: E. coli BL21(DE3); settings: 1 μM GmPOPB, 200 μM peptide substrate, performed twice
Protocol: The peptides are colored as Fig. 1c with N-terminus at top. Error bars are standard error of the mean from the average of at least two independent measurements (Supplementary Table 3). c Michaelis–Menten curves show both the 13mer and 14mer are substrates for the enzyme. Fitted values for K d, K m, and k cat are shown in Supplementary Tables 2 and 3. Error bars are standard error of the mean from duplicate measurements. d Cyclic peptide produced after 1 h reaction with 1 μM GmPOPB and 200 μM of various peptide substrates. e Peptide produced after 16 h of reaction with 1 μM GmPOPB and 200 μM of various peptide substrates. Peptide sequences are colored as Fig. 1b and detailed in Supplementary Fig. 1
Comparison between distinct substrates was performed in 50 mM Tris pH 8.0, 50 mM NaCl, 10 mM DTT with varying concentrations of substrates at room temperature. All reactions were performed in duplicates. […] Reactants were separated from products for quantification by injecting 50 μL of each quenched time point mix onto a ZORBAX SB-C18, 5 µm, 9.4 × 50 mm (Agilent) column connected to an Agilent LC-MS (G6130B Single Quad, Agilent Technologies). […] For progress curves with the 35mer substrate, measurements were triplicate and quantification relied on ion counts from mass spectrometry. […] Authentic cyclic peptide was quantified by UV absorbance. […]

GmPOPB-S577A = molecular target: T3, GmPOPB-S577A (Galerina marginata, UniProt H2E7Q8, S577A); test: crystal structure; settings: both partners purified
T3 sequence: T1 sequence (H2E7Q8 1-730 S577A)

GmPOPB-D661A = molecular target: T4, GmPOPB-D661A (Galerina marginata, UniProt H2E7Q8 1-730, D661A); test: crystal structure; settings: both partners purified
T4 sequence: T1 sequence (H2E7Q8 1-730 S577A) with A577S, D661A

Molecule: IWGIGCNPWTAEHV [14mer]
- -TΔS ([1]; GmPOPB_S577A, average ± SEM): -5.8 ± 0.2 kcal/mol
- ΔG ([1]; GmPOPB_S577A, average ± SEM): -6.7 ± 0.1 kcal/mol
- ΔH ([1]; GmPOPB_S577A, average ± SEM): -0.9 ± 0.2 kcal/mol
- Kd ([1]; peptide titrated into GmPOPB_S577A, 50 mM Tris pH 8.0, 50 mM NaCl, 10 mM DTT, single-site model, n fixed at 1.0, average ± SEM of at least 2 measurements): 9.5 ± 1.1 µM
- kcat (GmPOPB [2]): 0.00967 ± 0.00167 s⁻¹
- Linear product (hydrolysis instead of macrocyclization) after 16 h of reaction (GmPOPB [3]): less linear product

Molecule: IWGIGCNPWTAEHVDQTLASGNDIC (also called 25mer peptide) [25mer substrate (core, linker and recognition tail)]
- binding result (GmPOPB-S577A): binds
- binding result (GmPOPB-D661A): binds
